The nature of data set [1]: Measurement of mRNA encapsulation in lipid nanoparticles (Quant-iT Ribogreen). The data set is classed as physicochemical. The settings on record: LNP cationic lipid/DSPC/cholesterol/stealth lipid, N:P 4:1, leptin mRNA. The protocol: All equipment and disposable supplies are certified free of RNase activity by the manufacturer or rendered RNase free by use of the RNaseZap reagent (LifeTechnologies). mRNA is encapsulated at a cationic lipid amine to mRNA phosphate (N:P) molar ratio of 4:1. Lipids (cationic lipid, DSPC, cholesterol and lipidated PEG or stealth lipid) are dissolved in ethanol. The molar ratios are 40:10:38:2, respectively. The mixture is sonicated briefly, then gently agitated for 5 minutes and then maintained at 37° C. until use. mRNA is exchanged into citrate buffer pH 5.8-6.0 by use of Amicon Ultra-15 centrifugal concentrators, and the final concentration is adjusted to 0.5 mg/ml and held at 37° C. until use. An equal volume of lipids in ethanol, mRNA in citrate buffer, and citrate buffer alone are drawn into disposable syringes. Tubing leading from syringes containing lipids and mRNA are attached to the T junction, and tubing leading from the syringe containing citrate buffer alone is paired with the tubing exiting the T-junction over a collection vessel containing a stir bar on an active stir plate. Syringes are placed in a syringe pump set to expel contents at a flow rate of 1 ml per minute.
The pump is activated, and the collected mRNA in lipid nanoparticles is transferred to SnakeSkin dialysis tubing (10,000 MWCO, Thermo Scientific). Material is dialyzed against RNAse- and pyrogen-free 1× phosphate buffered saline overnight at 4° C.
Percent encapsulation of mRNA in lipid nanoparticles is determined using the Quant-iT Ribogreen RNA Assay kit (Life Technologies). The LNP-mRNA suspension is assayed in buffer (mRNA outside the particle), and buffer plus Triton X-100 detergent (total mRNA). The difference calculated is the mRNA inside the particle. Prepare a 1000 ng/mL stock from the RNA provided in the kit and use this to generate a standard curve (0 ng/ml, 15.63-1000 ng/ml) in TE and TE+0.75% Triton X-100. Prepare LNP-mRNA samples in TE buffer and TE buffer+0.75% Triton X-100 with appropriate dilution so that reading is in the range of standard curve (400-2,000 fold). In a 384-well plate (Costar non-treated #3573) add 0.04 ml of standard (in duplicate) or sample (in triplicate) per well. Dilute Ribogreen reagent 240-fold in TE buffer and add 0.06 ml per well. Mix contents of wells and measure fluorescence (excitation=480 nm, emission=520 nm). Subtract background values (no RNA) from standard and test sample values and determine the concentrations of RNA in the samples using the standard curves. Determine the percent encapsulation of the sample by dividing the difference in concentrations between sample+triton and sample in buffer alone by the sample+triton concentration.

Data set [2] in a line: Characterization of LNP formulations: Z average particle diameter and polydispersity index. The data set is classed as physicochemical. The settings on record: LNP formulation; for Zav (nm): Z average particle diameter; for polydispersity: polydispersity index. An excerpt:
The lipid nanoparticles have a size of about 1 to about 2,500 nm, about 1 to about 1,500 nm, about 1 to about 1,000 nm, in a sub-embodiment about 50 to about 600 nm, in a sub-embodiment about 50 to about 400 nm, in a sub-embodiment about 50 to about 250 nm, and in a sub-embodiment about 50 to about 150 nm. Unless indicated otherwise, all sizes referred to herein are the average sizes (diameters) of the fully formed nanoparticle, as measured by dynamic light scattering on a Malvern Zetasizer. The nanoparticle sample is diluted in phosphate buffered saline (PBS) so that the count rate is approximately 200-400 kcts. The data is presented as a weighted average of the intensity measure.

Data set [3] is described as follows: Encapsulation efficiency of RNA replicons (Quant-iT RiboGreen). The data set is classed as physicochemical. As to conditions: LNP 40% cationic lipid, 10% DSPC, 48% cholesterol, 2% PEG-DMG; RNA replicon. The procedure: Briefly, lipids were dissolved in ethanol (2m1), a RNA replicon was dissolved in buffer (2 ml, 100 mM sodium citrate, pH 6) and these were mixed with 2 ml of buffer followed by 1 hour of equilibration. The mixture was then dialized overnight against 1×PBS. The resulting product contained liposomes, with ˜70-95% encapsulation efficiency.
The percentage of encapsulated RNA and RNA concentration were determined by Quant-iT RiboGreen RNA reagent kit (Invitrogen), following manufacturer's instructions. The ribosomal RNA standard provided in the kit was used to generate a standard curve. LNPs were diluted 10× or 100× in 1× TE buffer (from kit) before addition of the dye. Separately, LNPs were diluted 10× or 100× in 1× TE buffer containing 0.5% Triton X before addition of the dye (to disrupt the LNPs and thus to assay total RNA). Thereafter an equal amount of dye was added to each solution and then ˜180 μL of each solution after dye addition was loaded in duplicate into a 96 well tissue culture plate. The fluorescence (Ex 485 nm, Em 528 nm) was read on a microplate reader. All LNP formulations were dosed in vivo based on the encapsulated amount of RNA.

The test system of another data set is RSV F protein. The data set is classed as in vivo. As to conditions: Table 4; BALB/c mice, intramuscular, 1 ng vA375 replicon in LNP, days 0 and 21. In general terms: Replicon systems follow genome replication, usually without infectious particles.

SMILES strings stand for the structures.

On to `CCCCC/C=C\C/C=C\CCCCCCCCOc1cc(COC(=O)OCCCN(C)C)c(OCCCCCCCC/C=C\C/C=C\CCCCC)cc1C` [Example 14, 3-(dimethylamino)propyl 4-methyl-2,5-bis((9Z,12Z)-octadeca-9,12-dien-1-yloxy)benzyl Carbonate], for which the “% encapsulation (mRNA Leptin)” value in data set [1] came out at 77.9%. For the same compound, in data set [2], the “Zav (nm)” value is recorded as 127.7 nm and the polydispersity is reported as 0.102. Moreover, the “Encapsulation efficiency (RNA %)” value in data set [3] worked out at 78.3%. For the same compound, the “Log10(IgG titer), 1 ng RNA (RSV-F), 2 weeks post 2nd immunization” value in the data set on RSV F protein turned out to be 3.85.
In the case of `CCCCC/C=C\C/C=C\CCCCCCCCOc1cc(COC(=O)CCCN(C)C)c(OCCCCCCCC/C=C\C/C=C\CCCCC)cc1C` [Example 16, 4-methyl-2,5-bis((9Z,12Z)-octadeca-9,12-dien-1-yloxy)benzyl 4-(dimethylamino)butanoate], the “% encapsulation (mRNA Leptin)” value in data set [1] stood at 85.1%. Further, in data set [2], the “Zav (nm)” value stood at 115.5 nm and the polydispersity is listed as 0.108. Besides, the “Encapsulation efficiency (RNA %)” value in data set [3] stood at 88.0%. For the same compound, in the data set on RSV F protein, the “Log10(IgG titer), 1 ng RNA (RSV-F), 2 weeks post 2nd immunization” value is 4.40.
On the same counts, the results for `CCCCC/C=C\C/C=C\CCCCCCCCOc1ccc(COC(=O)CCCN(C)C)c(OCCCCCCCC/C=C\C/C=C\CCCCC)c1` [Example 19, 2,4-bis((9Z,12Z)-octadeca-9,12-dienyloxy)benzyl 4-(dimethylamino)butanoate] are 84.3%, 133.2 nm, 0.074, 79.9% and 4.68.

The record behind these values is patent publication US10844002B2, “Lipids and lipid compositions for the delivery of active agents” (priority 2014, dated 2020).
